Patent US20160158317A1, “Antimicrobial Peptide Variants and Polynucleotides Encoding Same” (Adenium Biotech A/S, priority 2010, published 2016)
Where a SMILES comes first, the peptide text is derived from it. Bridges are numbered along the chain shown (N, C = ends).

Experiment: Determination of the protein binding (90% serum, 30 kDa filter, HPLC)
Format: in vitro ADME
Conditions: serum
Protocol: Protein binding assays were performed as follows. The purified peptides were mixed with 90% serum and centrifuged through a 30 kDa filter. The ultra-filtrate and the non filtrated serum samples were quantified by HPLC measurements and the protein binding was subsequently calculated.

| SMILES | fraction unbound |
| --- | --- |
| CC(C)[C@@H]1NC(=O)CNC(=O)[C@H](CC(N)=O)NC(=O)[C@H](CCCNC(=N)N)NC(=O)[C@H](CCCNC(=N)N)NC(=O)[C@H](C(C)C)NC(=O)[C@@H]2CSSC[C@H](NC(=O)[C@H](C(C)C)NC(=O)[C@H](CCCNC(=N)N)NC1=O)C(=O)N[C@@H](Cc1ccc(O)cc1)C(=O)N[C@@H](CCCNC(=N)N)C(=O)N[C@@H](CCCNC(=N)N)C(=O)N[C@H](C(=O)N[C@@H](CC(N)=O)C(=O)O)CSSC[C@H](NC(=O)[C@H](Cc1ccccc1)NC(=O)CN)C(=O)N[C@@H](Cc1ccccc1)C(=O)N[C@@H](CCCNC(=N)N)C(=O)N[C@@H](CO)C(=O)N2 [compound 377] (H-GFCFRSCVRRNGVRVCYRRCN-OH; disulfide 3-20, 7-16 (inferred); N-terminus and C-terminus assumed) | 0.35 |
| CC(C)[C@@H]1NC(=O)CNC(=O)[C@H](CC(N)=O)NC(=O)[C@H](CCCNC(=N)N)NC(=O)[C@H](CCCCN)NC(=O)[C@H](C(C)C)NC(=O)[C@@H]2CSSC[C@H](NC(=O)[C@H](CCCCN)NC(=O)[C@H](CCCNC(=N)N)NC1=O)C(=O)N[C@@H](Cc1ccc(O)cc1)C(=O)N[C@@H](CCCNC(=N)N)C(=O)N[C@@H](CCCNC(=N)N)C(=O)N[C@H](C(=O)N[C@@H](CC(N)=O)C(=O)O)CSSC[C@H](NC(=O)[C@H](Cc1ccccc1)NC(=O)CN)C(=O)N[C@@H](Cc1ccccc1)C(=O)N[C@@H](CCCNC(=N)N)C(=O)N[C@@H](C(C)C)C(=O)N2 [compound 381] (H-GFCFRVCVKRNGVRKCYRRCN-OH; disulfide 3-20, 7-16 (inferred); N-terminus and C-terminus assumed) | 0.02 |
| CC(C)[C@@H]1NC(=O)[C@@H]2CSSC[C@H](NC(=O)[C@H](C)NC(=O)[C@H](CCCNC(=N)N)NC(=O)[C@H](CCCCN)NC(=O)CNC(=O)[C@H](CC(N)=O)NC(=O)[C@H](CCCNC(=N)N)NC(=O)[C@H](Cc3ccc(O)cc3)NC1=O)C(=O)N[C@@H](Cc1ccc(O)cc1)C(=O)N[C@@H](CCCNC(=N)N)C(=O)N[C@@H](CCCNC(=N)N)C(=O)N[C@H](C(=O)N[C@@H](CC(N)=O)C(=O)O)CSSC[C@H](NC(=O)[C@H](Cc1ccccc1)NC(=O)CN)C(=O)NCC(=O)N[C@@H](CCCNC(=N)N)C(=O)N[C@@H](C(C)C)C(=O)N2 [compound 386] (H-GFCGRVCVYRNGKRACYRRCN-OH; disulfide 3-20, 7-16 (inferred); N-terminus and C-terminus assumed) | 0.19 |
| CC(C)[C@@H]1NC(=O)[C@@H]2CSSC[C@H](NC(=O)[C@H](CO)NC(=O)[C@H](CCCNC(=N)N)NC(=O)[C@H](CCCCN)NC(=O)CNC(=O)[C@H](CC(N)=O)NC(=O)[C@H](CCCCN)NC(=O)[C@H](Cc3ccc(O)cc3)NC1=O)C(=O)N[C@@H](Cc1ccc(O)cc1)C(=O)N[C@@H](CCCNC(=N)N)C(=O)N[C@@H](CCCNC(=N)N)C(=O)N[C@H](C(=O)N[C@@H](CC(N)=O)C(=O)O)CSSC[C@H](NC(=O)[C@H](Cc1ccccc1)NC(=O)CN)C(=O)N[C@@H](Cc1c[nH]c3ccccc13)C(=O)N[C@@H](Cc1c[nH]cn1)C(=O)N[C@@H](C(C)C)C(=O)N2 [compound 390] (H-GFCWHVCVYKNGKRSCYRRCN-OH; disulfide 3-20, 7-16 (inferred); N-terminus and C-terminus assumed) | 0.13 |
| CC(C)[C@@H]1NC(=O)[C@H](Cc2c[nH]cn2)NC(=O)[C@H](Cc2c[nH]c3ccccc23)NC(=O)[C@@H](NC(=O)[C@H](Cc2ccccc2)NC(=O)CN)CSSC[C@@H](C(=O)N[C@@H](CC(N)=O)C(=O)O)NC(=O)[C@H](CCCNC(=N)N)NC(=O)[C@H](CCCNC(=N)N)NC(=O)[C@H](Cc2ccc(O)cc2)NC(=O)[C@@H]2CSSC[C@H](NC1=O)C(=O)N[C@@H](C)C(=O)N[C@@H](CCCNC(=N)N)C(=O)N[C@@H](CCCNC(=N)N)C(=O)N[C@@H](CC(N)=O)C(=O)NCC(=O)N[C@@H](C)C(=O)N[C@@H](CCCNC(=N)N)C(=O)N[C@@H](C(C)C)C(=O)N2 [compound 394] (H-GFCWHVCARRNGARVCYRRCN-OH; disulfide 3-20, 7-16 (inferred); N-terminus and C-terminus assumed) | 0.2 |
| CC(C)C[C@@H]1NC(=O)CNC(=O)[C@H](CC(N)=O)NC(=O)[C@H](CCCNC(=N)N)NC(=O)[C@H](CCCCN)NC(=O)[C@H](CO)NC(=O)[C@@H]2CSSC[C@H](NC(=O)[C@H](C(C)C)NC(=O)[C@H](CCCNC(=N)N)NC1=O)C(=O)N[C@@H](Cc1ccc(O)cc1)C(=O)N[C@@H](CCCNC(=N)N)C(=O)N[C@@H](CCCNC(=N)N)C(=O)N[C@H](C(=O)N[C@@H](CC(N)=O)C(=O)O)CSSC[C@H](NC(=O)[C@H](Cc1ccccc1)NC(=O)CN)C(=O)N[C@@H](Cc1c[nH]c3ccccc13)C(=O)N[C@@H](Cc1c[nH]cn1)C(=O)N[C@@H](C(C)C)C(=O)N2 [compound 396] (H-GFCWHVCSKRNGLRVCYRRCN-OH; disulfide 3-20, 7-16 (inferred); N-terminus and C-terminus assumed) | 0.08 |
| CC(C)[C@@H]1NC(=O)CNC(=O)[C@H](CC(N)=O)NC(=O)[C@H](CCCNC(=N)N)NC(=O)[C@H](CCCNC(=N)N)NC(=O)[C@H](C)NC(=O)[C@@H]2CSSC[C@H](NC(=O)[C@H](C(C)C)NC(=O)[C@H](CCCNC(=N)N)NC1=O)C(=O)N[C@@H](Cc1ccc(O)cc1)C(=O)N[C@@H](CCCNC(=N)N)C(=O)N[C@@H](CCCNC(=N)N)C(=O)N[C@H](C(=O)N[C@@H](CC(N)=O)C(=O)O)CSSC[C@H](NC(=O)[C@H](Cc1ccccc1)NC(=O)CN)C(=O)N[C@@H](Cc1c[nH]c3ccccc13)C(=O)N[C@@H](CC(N)=O)C(=O)N[C@@H](C)C(=O)N2 [compound 407] (H-GFCWNACARRNGVRVCYRRCN-OH; disulfide 3-20, 7-16 (inferred); N-terminus and C-terminus assumed) | 0.12 |
| CC(C)[C@@H]1NC(=O)[C@H](CC(N)=O)NC(=O)[C@H](Cc2c[nH]c3ccccc23)NC(=O)[C@@H](NC(=O)[C@H](Cc2ccccc2)NC(=O)CN)CSSC[C@@H](C(=O)N[C@@H](CC(N)=O)C(=O)O)NC(=O)[C@H](CCCNC(=N)N)NC(=O)[C@H](CCCNC(=N)N)NC(=O)[C@H](Cc2ccc(O)cc2)NC(=O)[C@@H]2CSSC[C@H](NC1=O)C(=O)N[C@@H](C)C(=O)N[C@@H](Cc1ccc(O)cc1)C(=O)N[C@@H](CCCNC(=N)N)C(=O)N[C@@H](CC(N)=O)C(=O)NCC(=O)N[C@@H](CCCCN)C(=O)N[C@@H](CCCNC(=N)N)C(=O)N[C@@H](C)C(=O)N2 [compound 411] (H-GFCWNVCAYRNGKRACYRRCN-OH; disulfide 3-20, 7-16 (inferred); N-terminus and C-terminus assumed) | 0.14 |
| CC(C)[C@@H]1NC(=O)[C@H](CCCNC(=N)N)NC(=O)[C@H](CCCCN)NC(=O)CNC(=O)[C@H](CC(N)=O)NC(=O)[C@H](CCCNC(=N)N)NC(=O)[C@H](Cc2ccc(O)cc2)NC(=O)[C@H](C)NC(=O)[C@@H]2CSSC[C@H](NC1=O)C(=O)N[C@@H](Cc1ccc(O)cc1)C(=O)N[C@@H](CCCNC(=N)N)C(=O)N[C@@H](CCCNC(=N)N)C(=O)N[C@H](C(=O)N[C@@H](CC(N)=O)C(=O)O)CSSC[C@H](NC(=O)[C@H](Cc1ccccc1)NC(=O)CN)C(=O)N[C@@H](Cc1c[nH]c3ccccc13)C(=O)N[C@@H](CCCNC(=N)N)C(=O)N[C@@H](C)C(=O)N2 [compound 417] (H-GFCWRACAYRNGKRVCYRRCN-OH; disulfide 3-20, 7-16 (inferred); N-terminus and C-terminus assumed) | 0.05 |
